Measured values: patent US5679671A, “Amino acid derivative” (Eisai Co., Ltd., priority 1993, dated 1997)

Legend:
ACE [1] = target: T1, ACE (Rattus norvegicus, UniProt P47820); experiment: ACE inhibition activity (Experiment F-1); format: biochemical; settings: rat lung membrane fraction, pH 8.3
T1 construct: membrane fraction prepared from rat lung; from tissue; host or cells: rat lung, membrane fraction (method of Wu-Wong et al.)
T1 sequence (P47820 36-1313): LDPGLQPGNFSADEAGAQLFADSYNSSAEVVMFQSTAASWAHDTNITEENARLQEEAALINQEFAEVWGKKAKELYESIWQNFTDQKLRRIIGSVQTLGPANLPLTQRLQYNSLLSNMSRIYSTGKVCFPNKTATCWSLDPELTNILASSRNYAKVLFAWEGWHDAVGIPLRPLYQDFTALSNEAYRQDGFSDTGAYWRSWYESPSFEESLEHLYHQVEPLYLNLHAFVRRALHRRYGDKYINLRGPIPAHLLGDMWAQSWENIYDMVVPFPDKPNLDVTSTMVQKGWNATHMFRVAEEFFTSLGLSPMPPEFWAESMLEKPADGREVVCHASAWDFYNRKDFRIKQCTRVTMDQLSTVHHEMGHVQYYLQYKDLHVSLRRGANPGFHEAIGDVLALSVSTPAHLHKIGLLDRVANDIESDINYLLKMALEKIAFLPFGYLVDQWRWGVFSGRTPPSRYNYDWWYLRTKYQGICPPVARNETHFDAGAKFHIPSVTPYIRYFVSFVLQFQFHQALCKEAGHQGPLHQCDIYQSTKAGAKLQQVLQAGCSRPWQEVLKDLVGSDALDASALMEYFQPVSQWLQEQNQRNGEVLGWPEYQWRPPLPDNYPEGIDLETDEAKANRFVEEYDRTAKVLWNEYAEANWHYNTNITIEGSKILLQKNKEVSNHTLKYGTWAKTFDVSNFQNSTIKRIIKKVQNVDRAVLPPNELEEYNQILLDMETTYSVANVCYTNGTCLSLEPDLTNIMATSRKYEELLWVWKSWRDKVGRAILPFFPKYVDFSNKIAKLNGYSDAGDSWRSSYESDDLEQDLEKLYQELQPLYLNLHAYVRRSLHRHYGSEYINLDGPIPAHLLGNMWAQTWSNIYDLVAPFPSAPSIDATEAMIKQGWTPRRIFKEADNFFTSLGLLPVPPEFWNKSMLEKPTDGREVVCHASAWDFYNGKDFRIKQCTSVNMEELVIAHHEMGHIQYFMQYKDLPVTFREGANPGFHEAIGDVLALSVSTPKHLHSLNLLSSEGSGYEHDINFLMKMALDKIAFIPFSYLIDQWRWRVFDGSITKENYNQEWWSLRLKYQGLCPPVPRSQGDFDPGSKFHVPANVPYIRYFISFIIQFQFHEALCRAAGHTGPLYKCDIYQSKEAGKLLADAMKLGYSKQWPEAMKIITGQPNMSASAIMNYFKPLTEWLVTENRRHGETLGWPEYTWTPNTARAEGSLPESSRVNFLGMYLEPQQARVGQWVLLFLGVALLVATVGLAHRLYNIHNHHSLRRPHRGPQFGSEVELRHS
Experimental: As a source of the enzyme ACE, a membrane fraction prepared from rat lung in accordance with the method of Wu-Wong et al. (Characterization of Endthelin Converting Enzyme in Rat Lung., Jinshyum R. Wu-Wong, Gerald P. Budzik, Edward M, Devine and Terry J. Opgenorth, Biochem. Biophys. Res. Commun., 1990, 171, 1291-1296.) was used. The ACE activity was determined with the use of a modification (modified to a borate buffer pH 8.3) of the method of Cushman and Cheung (Spectrophotometric Assay and Properties of the Angiotensin-Converting Enzyme of Rabbit Lung., Cushman D. W. and Cheung H. S., 1971, 20, 1637-1648.). Now the procedure will be briefly described.
In the presence of ACE, the hippurate liberated from hippuryl-histidyl-leucine (Hippuryl-His-Leu (Peptide Institute Inc., Japan)) was extracted with ethyl acetate and then the absorbance was measured at a wavelength of 228 nm.
With respect to the NEP inhibition activity and the ACE inhibition activity, the inhibitor was added to the assay systems of both enzyme activities as described above in such a manner as to give the final concentrations of 1, 3, 10, 30, 100, 300 and 1000 inhibition curves were prepared, and then the concentration at which 50% inhibition was achieved was taken as IC50.

ACE [2] = target: T1, ACE; experiment: ACE inhibition activity using rat lung (Experiment C-2); format: biochemical; settings: Table C-1; rat lung membrane fraction, borate buffer pH 8.3
Experimental: The ACE inhibition activity was determined by using a membrane fraction prepared from rat lung in accordance with the method of Wu-Wong et al. (Characterization of Endthelin Converting Enzyme in Rat Lung., Junshyum R. Wu-Wong, Gerald P. Budzik, Edward M. Devine and Terry J. Opgenorth, Biochem. Biophys. Res. Commun., 1990, 171, 1291-1296.).
The ACE activity was determined with the use of a modification (modified to a borate buffer, pH 8.3) of the method of Cushman and Cheung (Spectrophotometric Assay and Properties of the Angiotensin-Converting Enzyme of Rabbit Lung., Cushman D. W. and Cheung H. S., 1971, 20, 1637-1648.).
In the presence of ACE, the hippurate liberated from hippuryl-histidyl-leucine (Hippuryl-His-Leu (PeptideInstitute Inc., Japan)) was extracted with ethyl acetate and then the absorbance was measured at a wavelength of 228 nm.
With respect to the ACE inhibition activity, the test compound was added to the reaction system as described above in such a manner as to give the final concentrations of 1, 3, 10, 30, 100, 300 and 1000 nM, an inhibition curve was prepared, and then the concentration at which 50% inhibition was achieved was taken as IC50. As a comparative compound, [4S-[4α,7α(R*),12bβ]]-7-[(1-oxo-2-(S)-thio-3-phenyl-propyl)amino]-1,2,3,4,6,7,8,12b-octahydro-6-oxopyrido-[2,1-a][2]benzazepine-4-carboxylic acid was used.

[3] = test system: 2K-1C-Goldblatt Hypertensive Rat; experiment: Hypotensive effect on 2K-1C-Goldblatt hypertensive rat, oral (Experiment C-3); format: in vivo, male Sprague Dawley rats
Experimental: A silver clip with a slit of 0.25 mm in width was fitted into the left renal artery of each of male Sprague Dawley rats (aged 6 to 7 weeks) and, after three weeks, rats showing a systolic blood pressure of 180 mmHg or above were employed. One to several drops of a 1N aqueous solution of sodium hydroxide were dropped into purified water and each test compound was dissolved or emulsified therein to prepare it at a dose of 5 ml/kg, followed by orally administration. After keeping the rats in an incubator at 45° C. for 5 to 10 minutes, the systolic blood pressure was measured by the indirect method of tail artery plethysmography. As a comparative compound, [4S-[4α,7α(R*),12bβ]]-7-[(1-oxo-2-(S)-thio-3-phenyl-propyl)amino[-1,2,3,4,6,7,8,12b-octahydro-6-oxo-pyrido[2,1-a][2]benzazepine-4-carboxylic acid was used.

| IC50 (ACE [1]) [nM] | IC50 (ACE [2]) [nM] | Compound | Decrease (%) in blood pressure after 6 hrs. ([3]; 1 mg/kg oral) [%] | Decrease (%) in blood pressure after 6 hrs. ([3]; 3 mg/kg oral) [%] | Decrease (%) in blood pressure after 1-3 hrs. ([3]; 1 mg/kg oral, after 2 hrs) [%] | also measured |
| --- | --- | --- | --- | --- | --- | --- |
| 13.4 |  | O=C(N[C@H]1CCC[C@H]2SC[C@@H](C(=O)O)N2C1=O)[C@@H](S)Cc1ccccc1 [Example F-17, [3R-[3α,6α(S*),9aβ]]-6-[[(S)-1-Oxo-2-thio-3-phenylpropyl]amino]-octahydro-5-oxothiazol[3,2-a]-azepine-3-carboxylic acid] |  |  |  |  |
| 10.6 | 9 | O=C(N[C@H]1Cc2ccccc2[C@H]2CCC[C@@H](C(=O)O)N2C1=O)[C@@H](S)Cc1ccccc1 [Comp. cpd. E-1, [4S-[4α,7α(R*),12bβ]]-7-[(1-oxo-2-(S)-thio-3-phenyl-propyl)amino]-1,2,3,4,6,7,8,12b-octahydro-6-oxopyrido-[2,1-a][2]benzazepine-4-carboxylic acid, reference compound] |  | 12.9 |  | Decrease (%) in blood pressure after 1-3 hrs. ([3]; 3 mg/kg oral, after 1 hr): 15.4%; Decrease (%) in blood pressure after 1-3 hrs. ([3]; 10 mg/kg oral, after 1 hr): 14.2%; Decrease (%) in blood pressure after 6 hrs. ([3]; 10 mg/kg oral): 19.1% |

More lines, now with the values behind:

| Compound | IC50 (ACE [1]) [nM] | IC50 (ACE [2]) [nM] | Decrease (%) in blood pressure after 6 hrs. ([3]; 1 mg/kg oral) [%] | Decrease (%) in blood pressure after 6 hrs. ([3]; 3 mg/kg oral) [%] | Decrease (%) in blood pressure after 1-3 hrs. ([3]; 1 mg/kg oral, after 2 hrs) [%] | also measured |
| --- | --- | --- | --- | --- | --- | --- |
| CC[C@H](C)[C@H](S)C(=O)N[C@H]1Cc2ccc(-c3ccccc3)cc2[C@H]2CCC[C@@H](C(=O)O)N2C1=O [Example C-14, [4S-[4α,7α(R*),12bβ]]-7-[[(2S,3S)-3-Methyl-1-oxo-2-thiopentyl]amino]-6-oxo-11-phenyl-1,2,3,4,6,7,8,12b-octahydropyrido[2,1-a][2]benzazepine-4-carboxylic acid] |  | 12.3 | 12.7 | 22.2 |  | Decrease (%) in blood pressure after 1-3 hrs. ([3]; 1 mg/kg oral, after 3 hrs): 13.4%; Decrease (%) in blood pressure after 1-3 hrs. ([3]; 3 mg/kg oral, after 3 hrs): 25.9% |
| CC[C@H](C)[C@H](S)C(=O)N[C@H]1CCc2ccccc2N(CC(=O)O)C1=O [Example A-11, (S)-3-[(2S,3S)-2-Mercapto-3-methylvarelylamino]-1-carboxymethyl-2,3,4,5-tetrahydro-1H-[1]benzazepin-2-one] |  | 11 |  |  |  |  |
| CC[C@H](C)[C@H](S)C(=O)NC1CCc2ccccc2N(CC(=O)O)C1=O (stereo partly drawn) [Example A-9, 1-Carboxymethyl-3-[(2S,3S)-2-mercapto-3-methylvarelylamino]-1H-[1]benzazepin-2-one] |  | 13 | 20.8 |  | 17.3 |  |
| CC[C@H](C)[C@H](S)C(=O)N[C@H]1CCC[C@H]2SC[C@@H](C(=O)O)N2C1=O [Example C-8, [3R-[3α,6α,(S*),9aβ]]-6-[[(2S,3S)-3-methyl-1-oxo-2-thiopentyl]amino]-octahydro-5-oxothiazol[3,2-a]-azepine-3-carboxylic acid] | 5.2 | 5.3 | 25.3 |  | 28.4 |  |
